The IC50 is the concentration at which inhibition is half-maximal. Read a high IC50 as weaker potency in that assay.

In the Kinase Knowledgebase extract (Sharma et al. 2016) one finds IC50 data, which are given here for 28 compounds.

The structures appear in SMILES notation.

The target in test [1] is PIK3CA (human) (UniProt P42336). The test can be described thus: Assessment of PIK3CA Kinase Activity.
Test [2] addresses PIK3CD (Human) (UniProt O00329). Description: Assessment of PIK3CD Kinase Activity.
Test [3] concerns the target PIK3CB (Human) (UniProt P42338). The test can be described thus: Assessment of PIK3CB Kinase Activity.

Chain of PIK3CA (human) (P42336 whole entry, looked up): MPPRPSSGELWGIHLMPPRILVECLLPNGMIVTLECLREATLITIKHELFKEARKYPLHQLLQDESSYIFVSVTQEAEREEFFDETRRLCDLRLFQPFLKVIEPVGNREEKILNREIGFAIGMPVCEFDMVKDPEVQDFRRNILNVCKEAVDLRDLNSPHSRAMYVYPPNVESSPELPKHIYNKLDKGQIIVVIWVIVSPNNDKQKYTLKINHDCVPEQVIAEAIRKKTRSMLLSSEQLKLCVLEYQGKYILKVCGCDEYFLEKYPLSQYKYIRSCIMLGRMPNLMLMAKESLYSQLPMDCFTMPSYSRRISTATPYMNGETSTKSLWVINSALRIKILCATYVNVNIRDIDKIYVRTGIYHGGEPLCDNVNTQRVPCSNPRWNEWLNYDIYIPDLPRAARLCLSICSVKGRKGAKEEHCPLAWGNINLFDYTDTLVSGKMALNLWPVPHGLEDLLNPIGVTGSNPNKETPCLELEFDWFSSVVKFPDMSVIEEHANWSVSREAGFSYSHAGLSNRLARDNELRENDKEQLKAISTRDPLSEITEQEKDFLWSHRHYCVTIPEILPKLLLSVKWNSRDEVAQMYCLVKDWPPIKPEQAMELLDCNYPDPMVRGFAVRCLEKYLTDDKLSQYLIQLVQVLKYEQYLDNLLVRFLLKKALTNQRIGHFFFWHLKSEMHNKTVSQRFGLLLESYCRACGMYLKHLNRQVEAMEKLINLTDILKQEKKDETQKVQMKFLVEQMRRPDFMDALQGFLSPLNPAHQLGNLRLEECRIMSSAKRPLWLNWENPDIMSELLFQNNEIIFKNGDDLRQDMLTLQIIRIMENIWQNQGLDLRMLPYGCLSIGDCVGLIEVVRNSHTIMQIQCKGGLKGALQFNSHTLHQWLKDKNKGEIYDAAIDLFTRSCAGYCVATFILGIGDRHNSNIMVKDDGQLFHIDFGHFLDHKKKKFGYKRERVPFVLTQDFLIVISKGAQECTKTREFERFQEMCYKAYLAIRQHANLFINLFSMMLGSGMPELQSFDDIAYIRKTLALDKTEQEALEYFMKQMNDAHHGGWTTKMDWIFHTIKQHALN
Chain of PIK3CD (Human) (O00329 whole entry, looked up): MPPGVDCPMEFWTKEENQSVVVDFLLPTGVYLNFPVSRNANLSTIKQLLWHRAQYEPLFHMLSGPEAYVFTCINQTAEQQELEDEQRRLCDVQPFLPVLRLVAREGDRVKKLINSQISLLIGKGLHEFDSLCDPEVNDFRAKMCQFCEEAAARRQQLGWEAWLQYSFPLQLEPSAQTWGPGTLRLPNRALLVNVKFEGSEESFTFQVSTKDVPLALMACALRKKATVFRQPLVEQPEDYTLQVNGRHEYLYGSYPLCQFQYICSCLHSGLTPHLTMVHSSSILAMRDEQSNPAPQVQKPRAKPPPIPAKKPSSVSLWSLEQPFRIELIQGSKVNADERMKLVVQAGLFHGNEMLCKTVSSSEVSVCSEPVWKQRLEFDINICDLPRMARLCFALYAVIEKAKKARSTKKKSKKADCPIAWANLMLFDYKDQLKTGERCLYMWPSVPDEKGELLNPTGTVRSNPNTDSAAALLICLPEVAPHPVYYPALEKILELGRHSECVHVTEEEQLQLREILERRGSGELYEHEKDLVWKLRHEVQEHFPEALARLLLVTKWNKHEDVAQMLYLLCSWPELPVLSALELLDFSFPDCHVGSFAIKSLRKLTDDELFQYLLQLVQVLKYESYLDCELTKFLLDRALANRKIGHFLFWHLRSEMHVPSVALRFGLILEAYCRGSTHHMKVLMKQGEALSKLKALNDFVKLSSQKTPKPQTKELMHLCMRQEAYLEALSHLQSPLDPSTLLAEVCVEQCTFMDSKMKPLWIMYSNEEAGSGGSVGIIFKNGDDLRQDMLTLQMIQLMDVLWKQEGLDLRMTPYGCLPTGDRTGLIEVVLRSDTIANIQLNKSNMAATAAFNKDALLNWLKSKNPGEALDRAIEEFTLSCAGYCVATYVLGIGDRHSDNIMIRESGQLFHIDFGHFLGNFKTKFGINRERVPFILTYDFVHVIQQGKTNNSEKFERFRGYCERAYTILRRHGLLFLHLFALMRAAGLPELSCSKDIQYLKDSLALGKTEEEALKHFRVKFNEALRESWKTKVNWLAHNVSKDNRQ
Chain of PIK3CB (Human) (P42338 whole entry, looked up): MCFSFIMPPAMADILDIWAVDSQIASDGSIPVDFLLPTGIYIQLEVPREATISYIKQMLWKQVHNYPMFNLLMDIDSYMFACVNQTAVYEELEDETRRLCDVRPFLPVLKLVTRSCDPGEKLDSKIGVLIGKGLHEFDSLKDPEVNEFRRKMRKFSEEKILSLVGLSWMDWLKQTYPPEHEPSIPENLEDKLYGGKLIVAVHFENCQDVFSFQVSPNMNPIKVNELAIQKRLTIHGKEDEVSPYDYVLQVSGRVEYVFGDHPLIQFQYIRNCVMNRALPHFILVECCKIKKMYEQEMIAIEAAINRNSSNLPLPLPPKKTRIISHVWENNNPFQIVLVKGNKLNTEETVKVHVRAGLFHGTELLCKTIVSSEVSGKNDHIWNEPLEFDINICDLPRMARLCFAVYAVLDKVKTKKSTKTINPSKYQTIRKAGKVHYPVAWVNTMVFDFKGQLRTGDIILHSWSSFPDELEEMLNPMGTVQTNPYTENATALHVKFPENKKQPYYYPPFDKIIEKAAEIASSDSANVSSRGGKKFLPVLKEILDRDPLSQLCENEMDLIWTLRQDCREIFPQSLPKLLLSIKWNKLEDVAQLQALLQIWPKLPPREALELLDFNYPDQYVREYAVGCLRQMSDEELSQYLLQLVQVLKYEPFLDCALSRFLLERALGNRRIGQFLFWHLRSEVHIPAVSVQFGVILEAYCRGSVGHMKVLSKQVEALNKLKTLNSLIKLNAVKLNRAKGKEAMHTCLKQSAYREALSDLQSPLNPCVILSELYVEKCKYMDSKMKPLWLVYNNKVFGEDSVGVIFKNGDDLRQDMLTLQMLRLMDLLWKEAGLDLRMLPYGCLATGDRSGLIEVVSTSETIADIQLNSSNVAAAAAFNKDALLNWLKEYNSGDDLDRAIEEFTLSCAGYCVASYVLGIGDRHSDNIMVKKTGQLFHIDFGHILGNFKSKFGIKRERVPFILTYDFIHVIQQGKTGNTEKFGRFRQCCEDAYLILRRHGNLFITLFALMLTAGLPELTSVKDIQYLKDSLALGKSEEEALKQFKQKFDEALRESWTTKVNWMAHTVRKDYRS

With `FC(F)c1nc2ccccc2n1-c1nc(NCc2ccncc2)nc(N2CCOCC2)n1`, the 50% inhibitory concentration (IC50) in test [1] lay in the range of 0.1 to 1 µM.
As to `COc1ncc(-c2cc(N3CCOCC3)nc(-n3c(C(F)F)nc4c(OC)cccc43)n2)cn1`, the half-maximal inhibitory concentration (IC50) is less than 0.1 µM in test [1] and 0.1 to 1 µM in test [2].
Regarding `COc1ccncc1Nc1nc(N2CCOCC2)nc(-n2c(C(F)F)nc3ccccc32)n1`, the 50% inhibitory concentration (IC50) in test [1] was less than 0.1 µM; in test [3], 0.1 to 1 µM; in test [2], less than 0.1 µM.
Regarding `COc1cccc2c1nc(C(F)F)n2-c1nc(Nc2cnc(Cl)nc2)nc(N2CCOCC2)n1`, the half-inhibitory concentration (IC50) in test [1] and in test [2] was less than 0.1 µM throughout.
For `COc1cccc2c1nc(C(F)F)n2-c1nc(-c2cccnc2)nc(N2CCOCC2)n1`, the IC50 in test [1] and in test [2] was less than 0.1 µM each time.
As for `COc1ncc(Nc2nc(N3CCOCC3)nc(-n3c(C(F)F)nc4c(OC)cccc43)n2)cn1`, the IC50 in test [1] was less than 0.1 µM; in test [3], 0.1 to 1 µM; in test [2], less than 0.1 µM.
For the compound `COc1cccc2c1nc(C(F)F)n2-c1nc(Nc2ccncn2)nc(N2CCOCC2)n1`, the IC50 in test [1] is less than 0.1 µM; in test [3], 0.1 to 1 µM; in test [2] it was less than 0.1 µM.
Regarding `FC(F)c1nc2ccccc2n1-c1nc(Nc2ccccc2)nc(N2CCOCC2)n1`, the 50% inhibitory concentration (IC50) in test [1] was 0.1 to 1 µM; in test [3], 0.1 to 1 µM; in test [2], less than 0.1 µM.
As for `COc1cccc2c1nc(C(F)F)n2-c1nc(-c2cccnc2)cc(N2CCOCC2)n1`, the half-maximal inhibitory concentration (IC50) in test [1] and in test [2] was less than 0.1 µM in each case.
As to `FC(F)c1nc2ccccc2n1-c1nc(Nc2cccnn2)nc(N2CCOCC2)n1`, the figures for the IC50 in test [1], in test [3] and in test [2] were less than 0.1 µM, 0.1 to 1 µM and less than 0.1 µM, respectively.
With `FC(F)c1nc2ccccc2n1-c1nc(NCc2ccccc2)nc(N2CCOCC2)n1`, the IC50 was 0.1 to 1 µM in test [1], less than 0.1 µM in test [3] and less than 0.1 µM in test [2].
Regarding `CN(c1ccccc1)c1nc(N2CCOCC2)nc(-n2c(C(F)F)nc3ccccc32)n1`, the 50% inhibitory concentration (IC50) in test [1], in test [3] and in test [2] was 0.1 to 1 µM in each case.
Take `Cn1cc(Nc2nc(N3CCOCC3)nc(-n3c(C(F)F)nc4ccccc43)n2)cn1`: the IC50 in test [1] is less than 0.1 µM; in test [3], 0.1 to 1 µM; in test [2], less than 0.1 µM.
Regarding `COc1cc(N)cc2c1nc(C(F)F)n2-c1nc(-c2cn[nH]c2)nc(N2CCOCC2)n1`, the IC50 in test [1] and in test [2] was less than 0.1 µM each time.
`COc1ccc(Nc2nc(N3CCOCC3)nc(-n3c(C(F)F)nc4c(OC)cccc43)n2)cn1`: the half-inhibitory concentration (IC50) in test [1], in test [3] and in test [2] was less than 0.1 µM each time.
As to `FC(F)c1nc2ccccc2n1-c1nc(NCc2ccccn2)nc(N2CCOCC2)n1`, the IC50 in test [1], in test [3] and in test [2] was less than 0.1 µM in each case.
Regarding `COc1cc(N)cc2c1nc(C(F)F)n2-c1nc(N2CCOCC2)nc(-n2cccn2)n1`, the IC50 in test [1] and in test [2] was less than 0.1 µM in each case.
For the compound `COc1cccc2c1nc(C(F)F)n2-c1nc(Nc2ccc(F)nc2)nc(N2CCOCC2)n1`, the IC50 in test [1] is less than 0.1 µM; in test [3] it was 0.1 to 1 µM; in test [2], less than 0.1 µM.
In the case of `COc1cccc2c1nc(C(F)F)n2-c1nc(Nc2ccc(Cl)nc2)nc(N2CCOCC2)n1`, the IC50 in test [1] was less than 0.1 µM; in test [3], 0.1 to 1 µM; in test [2] it was less than 0.1 µM.
On to `CN(Cc1ccccc1)c1nc(N2CCOCC2)nc(-n2c(C(F)F)nc3ccccc32)n1`, for which the IC50 in test [3] is 0.1 to 1 µM; in test [2], less than 0.1 µM.
With `FC(F)c1nc2ccccc2n1-c1nc(Oc2cccnc2)nc(N2CCOCC2)n1`, in test [1], the IC50 lay within 0.1 to 1 µM.
Take `FC(F)c1nc2ccccc2n1-c1nc(Nc2ccccn2)nc(N2CCOCC2)n1`: the IC50 in test [1] and in test [2] was less than 0.1 µM each time.
Turning to `COc1cccc2c1nc(C(F)F)n2-c1nc(Nc2cnc(N(C)CCCN(C)C)nc2)nc(N2CCOCC2)n1`, the IC50 in test [1] and in test [2] was less than 0.1 µM each time.
For the compound `FC(F)c1nc2ccccc2n1-c1nc(-c2cccnc2)cc(N2CCOCC2)n1`, the IC50 in test [1] and in test [2] was 0.1 to 1 µM throughout.
As to `COc1cccc2c1nc(C(F)F)n2-c1nc(Nc2cccnn2)nc(N2CCOCC2)n1`, the IC50 in test [1] is less than 0.1 µM; in test [3], 0.1 to 1 µM; in test [2] it was less than 0.1 µM.
Take `COc1cccc2c1nc(C(F)F)n2-c1nc(Nc2ccc(N)nc2)nc(N2CCOCC2)n1`: the results for the IC50 in test [1], in test [3] and in test [2] were less than 0.1 µM, 0.1 to 1 µM and less than 0.1 µM, respectively.
On to `COc1cc(N)cc2c1nc(C(F)F)n2-c1nc(-c2ccn(C)n2)nc(N2CCOCC2)n1`, for which the IC50 in test [1] and in test [2] was less than 0.1 µM each time.
As to `FC(F)c1nc2ccccc2n1-c1nc(Oc2ccccc2)nc(N2CCOCC2)n1`, the IC50 in test [1] and in test [3] was more than 10 µM in each case.
